According to patent US10744084B2, “Non-specific delayed-type hypersensitivity response to treat herpes simplex virus infection” (Squarex, LLC, priority 2007, dated 2020):

Assays:
[1] = Presensitization and dose finding: DNCB solution in acetone applied to spots on the forearm, DTH rash/erythema observed; format: in vivo, human; details: for erythema on forearm: sensitized subject
Text: The subject then applied a 0.1%, 0.2%, and 0.3% solutions to separate small spots on the forearm.

[2] = system: herpes simplex virus type 1; test: Treatment of an individual with frequent and severe cold sores: DNCB solution applied at the site of the HSV lesion on the lower lip; format: in vivo, human
Text: The individual treated was one of the inventors. They are a person and was […] at the time of this treatment. The subject suffered from frequent cold sores on the lower lip. The outbreaks typically lasted 7-10 days and frequently longer. The subject had suffered from frequent cold sores most of their life. During the 6 months prior to this treatment, the outbreaks had been almost continuous. After getting over one outbreak, the next outbreak would begin often within a week.
In the morning they washed it off. A mild erythema in the area of the cold sore developed over 2-3 days and lasted a further 5 days, and the cold sore resolved in about 7 days, which was a typical duration for this individual or a slightly shorter duration than normal. […] Each outbreak would begin and completely resolve in one day. […] We think this may be because the immune system was recognizing not just the DNCB but also the herpes virus antigens with this second application. With the greater inflammation, the cold sore outbreak was worse than any of the outbreaks between the first and second DNCB treatments. […] The outbreak seemed to worsen as the inflammation associated with the DTH response worsened, and only lessened when the DTH response subsided.
When the outbreak subsided, the subject went another 6 months without any outbreaks to the present time.
For several months before and for the entire time described herein after the initial DNCB treatment, the subject took no antiviral medicines.

[3] = system: peripheral blood mononuclear cells; test: PBMC proliferation assay with stimulation by heat inactivated KOS HSV-1 particles; format: cell-based, human; details: after treatment compared with before treatment; killed KOS HSV-1 particles
Text: At visit 1, before applying SADBE, a blood sample is collected from each patient for use in a peripheral blood mononuclear cell (PBMC) proliferation assay to test immune response to herpes virus.
Two months after visit 2 (the first treatment application of SADBE to an HSV lesion) if the patient has not experienced a recurrence outbreak after visit 2, or one month after visit 3 (the treatment application of SADBE to a lesion of a second outbreak), a blood sample is collected from the patient. The first, pretreatment, blood sample and the second, posttreatment, blood sample are used to conduct PBMC proliferation assays to test immune response to herpes virus before and after treatment.
Venous blood is collected in heparinized test tubes for mononuclear cell isolation prior to treatment and after treatment at the times described above. […]
KOS HSV-1 virus (American Type Culture Collection) is grown in culture in VERO cells and collected. […] The titer of the virus stock is determined. […]
Results are calculated by averaging optical density of the wells in each of the groups. A stimulation index is calculated to reflect the proliferation in the wells stimulated by killed HSV as compared to the positive and negative controls. The average optical absorbance of the positive controls is set as a stimulation index (SI) value of 100 and the average absorbance of the negative controls as a SI value of 0.

[4] = system: herpes labialis; test: Treatment of herpes labialis by squaric acid dibutyl ester (thirty patients, subject diaries); format: in vivo, human; details: sensitizing dose 2% SADBE in DMSO, then two treatments on lesions in the next two outbreaks
Description: Thirty patients are recruited meeting the following criteria:
In a screening interview, vital signs are recorded, and information is collected on any medications the patient is currently taking, previous and current treatments for cold sores, severity and duration of cold sores.
Upon entering the study, patients are sensitized to squaric acid dibutyl ester (SADBE) by dipping a cotton-tipped swab in a 2% solution of SADBE in DMSO and swabbing a 1 cm^2 area on the forearm. Participants are told then to wait at least 2 weeks for their first treatment.
Throughout the study, the participants are asked to maintain a subject diary, in which they record each day any symptoms they experience, including fever, swelling, pain, redness, itching, burning, the size of any lesions, and any medications taken.
After the 2-week period to allow development of sensitivity to SADBE, upon the beginning of his or her next outbreak (within 72 hours of the first signs of an outbreak), each participant is swabbed at the site of the herpes labialis lesion with a 0.5% solution of SADBE in DMSO.
Upon the next distinct outbreak at least 2 weeks after the previous treatment at visit 2, study diaries are collected. If the diary reflects redness, blistering, or burning greater than 0.5 cm beyond the clinical lesion with the previous SADBE treatment, the dosage of SADBE is decreased to 0.1%. […]

[5] = system: warts; details: intralesional injection together with antigens; differences not statistically significant; cited from earlier work
[6] = first treatment, 0.2% DNCB on lower lip
[7] = second treatment, 0.2% DNCB on lower lip
[8] = third treatment, 0.1% DNCB solution

O=[N+]([O-])c1ccc(Cl)c([N+](=O)[O-])c1 [DNCB, 1-chloro-2,4-dinitrobenzene]
erythema on forearm ([1]; 0.1% DNCB solution): almost no erythema | erythema on forearm ([1]; 0.2% DNCB solution): mild but easily seen erythema | rash on forearm after presensitizing application ([1]; 2% DNCB in acetone, first application, two spots on forearm): No rash developed | duration of rash on forearm ([1]; 2% DNCB, second application two weeks after sensitizing dose): 3 weeks | rash on forearm after second application ([1]; 2% DNCB, two weeks after sensitizing dose, different spots on forearm): very strong but localized rash | severity and duration of subsequent outbreaks compared with before ([2]; 4 weeks after first treatment with 0.2% DNCB): much less severe and of much shorter duration than before | erythema in the area of the cold sore ([2]; first treatment, 0.2% DNCB in acetone on lower lip, left on overnight): mild erythema | further duration of erythema [2, 6]: 5 days | time over which erythema developed [2, 6]: 2 to 3 days | time to resolution of the treated cold sore [2, 6]: about 7 days | time without outbreaks ([2]; following second DNCB treatment at the site of a lesion): 6 months | time without outbreaks ([2]; following third treatment (0.1% DNCB), to the present time): 6 months | frequency of subsequent outbreaks ([2]; next 4 weeks after first treatment with 0.2% DNCB): approximately weekly | duration of the treated outbreak [2, 7]: about 7 days | severity of the treated outbreak [2, 7]: as severe or even slightly more severe than a typical outbreak | inflammation and erythema with the application ([2]; second treatment, 0.2% DNCB on lower lip, about two months after the first): more severe than they had been with the first application | DTH response at the cold sore [2, 8]: moderate DTH response | duration of the treated outbreak [2, 8]: about 10 days

CCCCOc1c(OCCCC)c(=O)c1=O [SADBE, squaric acid dibutyl ester]
stimulation index of PBMC [3]: increased after treatment | duration of outbreaks compared with before treatment [4]: last for less time | number of outbreaks compared with before treatment [4]: fewer outbreaks than before treatment

GM-CSF: granulocyte monocyte colony stimulating factor, cytokine used as immune response enhancer
fraction of patients responding to treatment compared with antigen alone [5]: larger fraction

interferon alpha
fraction of patients responding to treatment compared with antigen alone [5]: larger fraction
